Data taken from patent US12617773B2, “Azetidin-3-ylmethanol derivatives as CCR6 receptor modulators” (Idorsia Pharmaceuticals Ltd, priority 2020, dated 2026).

Biological target: T1, human CCR6 (Homo sapiens, UniProt P51684)
T1 construct: expressed in transfected cells; host or cells: HEK-293
T1 sequence (P51684 1-374): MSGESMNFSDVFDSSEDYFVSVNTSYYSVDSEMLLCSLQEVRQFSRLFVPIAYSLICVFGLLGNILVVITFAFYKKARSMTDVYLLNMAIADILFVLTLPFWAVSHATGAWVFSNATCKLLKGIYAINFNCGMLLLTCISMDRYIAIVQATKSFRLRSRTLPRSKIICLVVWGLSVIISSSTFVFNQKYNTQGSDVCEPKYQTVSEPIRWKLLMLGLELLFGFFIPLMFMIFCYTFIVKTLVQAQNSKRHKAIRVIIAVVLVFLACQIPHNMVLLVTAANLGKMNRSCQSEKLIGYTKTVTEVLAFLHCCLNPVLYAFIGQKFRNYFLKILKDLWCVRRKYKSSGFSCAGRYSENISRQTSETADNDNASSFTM
Experiment: FLIPR assay (inhibition of CCL20-induced calcium signal)
Assay type: cell-based
Details: HEK-293 cells expressing human CCR6; mean values where determined several times; read-out: FLIPR IC50
Method in brief: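 IC50 values come from baseline-corrected peak calcium fluorescence after agonist. The agonist was CCL20 at 10 nM final, added to engineered human CCR6 HEK-293 cells following a 30-min, room-temperature, dark preincubation with serially diluted compound. Readings were taken in a fluorometric imaging plate reader.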

Row | Structure (SMILES) | IC50
1 | CC(=O)N1CCc2nc(-c3cncc([C@@](O)(c4ccc(C(C)C)cc4)C4(C)CN(C)C4)c3)ncc2C1 [Example 683, 1-(2-{5-[(R)-(1,3-Dimethyl-azetidin-3-yl)-hydroxy-(4-isopropyl-phenyl)-methyl]-pyridin-3-yl}-7,8-dihydro-5H-pyrido[4,3-d]pyrimidin-6-yl)-ethanone] | 105 nM
2 | CC(=O)N1CCc2nc(-c3cncc([C@@](O)(c4ccc(C(C)C)cc4)C4(C)CN(C)C4)c3)ccc2C1 [Example 684, 1-(2-{5-[(R)-(1,3-Dimethyl-azetidin-3-yl)-hydroxy-(4-isopropyl-phenyl)-methyl]-pyridin-3-yl}-7,8-dihydro-5H-[1,6]naphthyridin-6-yl)-ethanone] | 125 nM
3 | CC(=O)N1CCC(c2cnc(-c3cncc([C@@](O)(c4ccc(C(C)C)cc4)C4(C)CN(C)C4)c3)nc2)CC1 [Example 685, 1-[4-(2-{5-[(R)-(1,3-Dimethyl-azetidin-3-yl)-hydroxy-(4-isopropyl-phenyl)-methyl]-pyridin-3-yl}-pyrimidin-5-yl)-piperidin-1-yl]-ethanone] | 242 nM
4 | CC(=O)N1CCC(c2ccnc(-c3cncc([C@@](O)(c4ccc(C(C)C)cc4)C4(C)CN(C)C4)c3)n2)CC1 [Example 686, 1-[4-(2-{5-[(R)-(1,3-Dimethyl-azetidin-3-yl)-hydroxy-(4-isopropyl-phenyl)-methyl]-pyridin-3-yl}-pyrimidin-4-yl)-piperidin-1-yl]-ethanone] | 145 nM
